According to publication PMC4081582, “Enhancing Effect of Borneol and Muscone on Geniposide Transport across the Human Nasal Epithelial Cell Monolayer” (PLoS ONE, 2014):

Experiments:
Assay type in all cases: cell-based, human
HNECs [1] = assay: Membrane fluidity of HNECs by FRAP
Procedure: The cells were seeded on cell plate at a density of 5×10^4 cells·cm^−2. The above formulation groups were added and the plates were incubated for 3 h at 37 °C in a 5% CO2 incubator. Cells were rinsed with HBSS and stained with NBD-C6-HPC at 2 µg·mL^−1 for 30 min.
A method of fluorescence recovery after photobleaching (FRAP) was used here. After the definition of line scanning position, length and photobleaching position, the monolayer was visualized by a Confocal Laser Scanning Microscope under the following conditions: excitation wavelength of 488 nm, emission wavelength of 530 nm, laser power for fluorescence bleaching of 100%, bleaching time of 0.7 s, scanning frequency of 1.65 s and the total scanning time of 100 s. The fluorescence intensity time-variation at the photobleaching position was recorded and image formation was obtained by confocal tomoscanning.
The membrane fluidity was represented by fluorescence recovery rate (R) which was calculated with the following equation (4): [drawing 4] where F0 is the instant fluorescence value after photobleaching, F1 is the fluorescence value before photobleaching and F2 is the fluorescence recovery value after photobleaching.

actin = assay: Actin immunostaining of HNEC monolayer (tight junction); settings: 3 h exposure with geniposide 50 µg·mL^−1, vs control
Excerpt: Cells cultured on 12-well polyester membrane Transwell clear inserts were stained for actin. […] Fluorescence was visualized on an epifluorescence microscope (IX-71, Olympus, Japan) using a blue filter and images were taken using the analysis software.

HNECs [2] = assay: MTT cytotoxicity assay on HNECs; settings: 24 h
Procedure: The cytotoxicity of the main active ingredients in “Xing Nao Jing” on HNECs was evaluated by the methyl thiazolyl tetrazolium (MTT) colorimetric assay. Briefly, 100 µL of 5×10^4 cells·mL^−1 was seeded into 96-well plates. After 24 h, the medium was removed and replaced with a fresh medium containing increasing concentrations of geniposide, borneol, muscone and their combinations for another 24 h. After that, 15 µL of a 5 mg·mL^−1 MTT solution in 100 µL BEGM was added to each well. After 4 h of incubation, the supernatant was discarded and formazan crystals were dissolved in DMSO followed by vigorous mixing. Control wells were incubated with BEGM only and were treated similarly as above. The optical density was determined at 490 nm with a Multiskan Go microplate reader (Thermo, USA). The percent viability of the cells was determined from the absorbance values considering that of the control as 100%.
The percentage of cell toxicity in the MTT assay was calculated by the following equation (1): [drawing 1]

HNEC monolayer = assay: TEER measurement of HNEC monolayer
Procedure: Transepithelial electrical resistance was measured using an EVOM instrument (Millipore Corporation, USA) to check the monolayer integrity. The TEER of untreated cells and cells treated with borneol and muscone was determined in BEGM:DMEM/F12 (1∶1) before the experiment, after the experiment and after 24 h.

## CC1(C)C2CCC1(C)C(O)C2 (stereo not shown) [borneol, Borneol]
HNECs [1]; Bo 27.8 µg·mL^−1 with Ge 50 µg·mL^−1, 3 h
  Fluorescence recovery rate R (%)±SD: 37.08±5.05%
HNECs [1]; Bo 55.6 µg·mL^−1 with Ge 50 µg·mL^−1, 3 h
  Fluorescence recovery rate R (%)±SD: 49.60±4.21 %
HNECs [1]; Bo 111.2 µg·mL^−1 with Ge 50 µg·mL^−1, 3 h
  Fluorescence recovery rate R (%)±SD: 57.33±4.62 %
actin
  levels of the TJ proteins localized in the cell-cell junctions: decreased
HNECs [2]
  concentration range with no cell cytotoxicity: 0 to 300000 ng/mL
HNEC monolayer; after permeation experiment
  TEER after washing and incubating with BEGM:DMEM/F12 (1∶1) for 24 h: increased again
HNEC monolayer; borneol 55.6, 111.2 µg·mL^−1, muscone 8.34, 16.68 µg·mL^−1, and combinations, P<0.05
  TEER decrease during permeation studies, of the initial value: 10–20%
